Test results taken from publication PMC11063903, “Engineering a human P2X2 receptor with altered ligand selectivity in yeast” (The Journal of Biological Chemistry, 2024).
Numbering of substitutions follows the chain as printed.

Tests used:
P2X2 F303Y = target: T1, P2X2 F303Y (Homo sapiens, UniProt Q9UBL9, F303Y); test: Fast GCaMP-mScarletI assay in yeast, P2X2 F303Y; format: cell-based; conditions: for Bottom, best fit value / Hillslope, best fit value / Top, best fit value: four-parameter logistic fit of ΔF/ΔT; for Bottom, best fit value / Hillslope, best fit value / Top, best fit value / EC50: n = 3; for EC50: four-parameter logistic fit, unit inferred, unit M, read-out: EC50, best fit value
T1 construct: expressed in transfected cells; host or cells: S. cerevisiae BY4741 background
T1 sequence (Q9UBL9 1-471 F303Y): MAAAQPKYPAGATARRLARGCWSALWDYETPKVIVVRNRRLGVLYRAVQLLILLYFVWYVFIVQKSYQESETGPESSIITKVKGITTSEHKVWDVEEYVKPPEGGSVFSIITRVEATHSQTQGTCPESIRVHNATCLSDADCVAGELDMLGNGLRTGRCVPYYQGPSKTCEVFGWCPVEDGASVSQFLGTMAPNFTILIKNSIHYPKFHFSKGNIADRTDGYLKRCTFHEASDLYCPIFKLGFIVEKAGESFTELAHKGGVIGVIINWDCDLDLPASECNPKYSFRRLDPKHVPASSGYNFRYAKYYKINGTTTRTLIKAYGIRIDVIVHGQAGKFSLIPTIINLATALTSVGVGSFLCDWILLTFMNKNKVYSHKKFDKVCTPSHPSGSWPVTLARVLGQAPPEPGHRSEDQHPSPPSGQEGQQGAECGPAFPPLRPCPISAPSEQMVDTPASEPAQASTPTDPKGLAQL
Experimental: (§1) Figure 4 Unnatural-ligand gating in LBD libraries.A, WT P2X2 was tested with 1 mM ATP, 500 μM AMP-PNP, and compared to ATP with the broken receptor (K81C K83C) control with 1 mM ATP in the fast GCaMP-mScarletI assay (n = 3). […] B, heat map summarizing AMP-PNP signaling (ΔF/ΔT, fast GCaMP-mScarletI assay) in the site-saturation libraries (n = 2–3). All values are normalized to WT P2X2 with saturating amounts of AMP-PNP (500 μM) and therefore represent low signal (ΔF/ΔT) compared to the ATP ligand. C, F301W, F303Y, and A304W were combinatorially combined and tested against the WT, K81C K83C broken P2X2, and the single mutant clones with both ATP (1 mM, black) and AMP-PNP (500 μM, pink). […] Values here represent signal onset and are not normalized to a positive control (n = 2–5). D–K, dose response of each P2X variant with both ATP (black) and AMP-PNP (pink) in the fast GCaMP-mScarletI assay (n = 3). Statistics were performed via one-way ANOVA with Dunnett’s multiple comparisons with to the “broken” K81C K83C negative control. ∗ represents a p value ≤0.05, ∗∗ is p ≤ 0.01, and ∗∗∗ is p ≤ 0.001.
Given that the yeast-based screen seemed to recapitulate important structural and functional features of human ion channel function, we hypothesized that it might be possible to engineer new P2X2 functionalities in yeast, including new ligand specificity. […] We screened our 133-member library in the presence of 500 μM AMP-PNP (Fig. S7). While the AMP-PNP signal was uniformly low, three substitutions (F301W, F303Y, and A304W) increased signaling 2.5 to 2.8 times relative to the negative control receptor (Figs. 4B, and S7, D, F, and G). To gain a more complete view of the properties of these mutants, dose–response curves were generated with ATP and AMP-PNP (Fig. 4, D–G, and Table S2).
(§2) GCaMP assays were performed as follows. P2X2 GCaMP strains were designed with a bi-cistronic reporter, in which the GCaMP protein was followed by a 2A peptide and a mScarletI reporter ([53]). The co-translated mScarletI was designed to act as a control for plasmid loss, GCaMP breakage via nonsense mutation, and contamination. […] P2X2-GCaMP strains were cultured and induced as previously described. Samples were induced for 24 h to allow for the accumulation of the mature GCaMP protein. Cells were washed three times in 0.1 M MES/Tris buffer and resuspended with MES/Tris with supplemental calcium. Cells were loaded onto a black, clear bottom microplate and imaged on a FlexStation3 plate reader. Samples were imaged in “flex” mode. Samples were imaged for 48 s at an interval of 1.6 s. Fluorescence was measured with an excitation at 485 nm, and emission 525 nm. At the 21 s mark, 100 μl ligand solution was transferred to the cells. For strains with mScarlet, fluorescence was read with excitation 570 nm/emission 610 nm. Slopes were calculated from the last 6 points of measurement and were normalized to the positive control samples. Any replicate in which the mScarlet value was measured to be over 2 standard deviations less than the mean for that set was discarded from further analysis.
(§3) For multiple comparisons in the site-saturation screening data, One-way ANOVA with Dunnett’s multiple comparisons test was performed where every sample was compared to the “broken” negative control. Significance was plotted where ∗ represents a p value ≤0.05, ∗∗ is p ≤0.01, and ∗∗∗ is p ≤0.001. Dose–response curves were fit with nonlinear regression software using a four-parameter logistic curve. All statistics were calculated and plotted in Graphpad Prism software.

P2X2 F301W+F303Y+A304W = target: T2, P2X2 F301W+F303Y+A304W (Homo sapiens, UniProt Q9UBL9, A304W/F301W/F303Y); test: Fast GCaMP-mScarletI assay in yeast, P2X2 F301W+F303Y+A304W; format: cell-based; conditions: for Bottom, best fit value / Hillslope, best fit value / Top, best fit value: four-parameter logistic fit of ΔF/ΔT
T2 construct: expressed in transfected cells; host or cells: S. cerevisiae BY4741 background
T2 sequence (Q9UBL9 1-471 F301W/F303Y/A304W): T1 sequence (Q9UBL9 1-471 F303Y) with F301W, A304W
Experimental: as §1
The combined mutations were synergistic, with F303Y + A304W having a predicted additive effect of ca. Ten-fold, relative to the 73-fold seen.
as §2, §3

Question: Nc1ncnc2c1ncn2[C@@H]1O[C@H](COP(=O)(O)OP(=O)(O)OP(=O)(O)O)[C@@H](O)[C@H]1O [ATP] was tested. Which “Bottom, best fit value” (P2X2 F303Y) did it give?
Answer: 0.80

Question: And the “Hillslope, best fit value” (P2X2 F303Y)?
Answer: 2.18

Question: And the “Top, best fit value” (P2X2 F303Y)?
Answer: 68.07

Question: And the EC50 (P2X2 F303Y)?
Answer: 3.6 µM

Question: What about the “Bottom, best fit value” (P2X2 F301W+F303Y+A304W; n = 3) of the same molecule?
Answer: 0.79

Question: And the “Hillslope, best fit value” (P2X2 F301W+F303Y+A304W; n = 3)?
Answer: 2.37

Question: And the “Top, best fit value” (P2X2 F301W+F303Y+A304W; n = 3)?
Answer: 148.40

Question: What about the EC50 (P2X2 F301W+F303Y+A304W; four-parameter logistic fit, n = 3, unit inferred, unit M, read-out: EC50, best fit value) of the same molecule?
Answer: 8.88 µM

Question: Which results are given for Nc1ncnc2c1ncn2[C@@H]1O[C@H](COP(=O)(O)OP(=O)(O)NP(=O)(O)O)[C@@H](O)[C@H]1O [AMP-PNP]?
Answer: activity compared to the wild-type (P2X2 F303Y; AMP-PNP dose-response, Fig. 4D-G, Table S2): 1.89 fold; Bottom, best fit value (P2X2 F303Y): 0.2603; Hillslope, best fit value (P2X2 F303Y): 0.8857; Top, best fit value (P2X2 F303Y): 2.141; EC50 (P2X2 F303Y): 328 µM; improvement compared to the WT channel (rate of signal onset ΔF/ΔT) (P2X2 F301W+F303Y+A304W; at 500 μM AMP-PNP): 24 fold; Bottom, best fit value (P2X2 F301W+F303Y+A304W; n = 3): -0.1127; Hillslope, best fit value (P2X2 F301W+F303Y+A304W; n = 3): 1.945; Top, best fit value (P2X2 F301W+F303Y+A304W; n = 3): 97.49
